Data reported in ChEMBL document CHEMBL3044778, “Lethal and sublethal effects of buprofezin and imidacloprid on the whitefly parasitoid Encarsia inaron (Hymenoptera: Aphelinidae)” (2012).
In brackets after ≈: the same amount, converted by molar mass. Activity calls are given as the source filed them. The calls are words filed in the database; no cut-off is given here.

Experiments:
Encarsia inaron [1] = assay: Insecticidal activity against Encarsia inaron adults reared on compound treated freshly cut cucumber leaves assessed as induction if insect mortality measured 48 hr post compound treatment; assay type: functional
Encarsia inaron [2] = assay: Insecticidal activity against Encarsia inaron treated at pupal stages at 2000 ppm assessed as sex ratio (reference value: 0.68 no unit); assay type: functional, Pupal stage
Encarsia inaron [3] = assay: Insecticidal activity against Encarsia inaron treated at adult stages assessed as increase in net reproductive rate at 2000 ppm; assay type: functional, organism-based
Encarsia inaron [4] = assay: Insecticidal activity against Encarsia inaron treated at pupal stages assessed as net reproductive rate at 2000 ppm; assay type: functional, organism-based; conditions: Pupal stage
Encarsia inaron [5] = assay: Insecticidal activity against Encarsia inaron treated at adult stages assessed as doubling time at 2000 ppm; assay type: functional, organism-based
Encarsia inaron [6] = assay: Insecticidal activity against Encarsia inaron treated at larval stages assessed as intrinsic rate of increase at 31.25 ppm; assay type: functional, organism-based; conditions: Larval stage
Encarsia inaron [7] = assay: Insecticidal activity against Encarsia inaron treated at adult stages at 2000 ppm assessed as insects eggs level per day (reference value: 2.33 egg/day); assay type: functional
Encarsia inaron [8] = assay: Insecticidal activity against Encarsia inaron treated at adult stages at 2000 ppm assessed as insect longevity (reference value: 8.95 days); assay type: functional
Encarsia inaron [9] = assay: Insecticidal activity against Encarsia inaron treated at larval stages at 31.25 ppm assessed as insect total fecundity; assay type: functional, organism-based; conditions: Larval stage
Encarsia inaron [10] = assay: Insecticidal activity against Encarsia inaron treated at larval stages assessed as increase in net reproductive rate at 31.25 ppm; assay type: functional, organism-based; conditions: Larval stage
Encarsia inaron [11] = assay: Insecticidal activity against Encarsia inaron infested cucumber plants assessed as adult parasitoid emergence from parasitised host nymphs treated at pupae stages at 400 g ai/L SC measured 10 days post compound treatment (reference value: 79.60 %); assay type: functional
Encarsia inaron [12] = assay: Insecticidal activity against Encarsia inaron treated at pupal stages assessed as mean generation time at 2000 ppm; assay type: functional, organism-based; conditions: Pupal stage
Encarsia inaron [13] = assay: Insecticidal activity against Encarsia inaron treated at larval stages assessed as finite rate of increase at 31.25 ppm; assay type: functional, organism-based; conditions: Larval stage
Encarsia inaron [14] = assay: Insecticidal activity against Encarsia inaron treated at adult stages assessed as intrinsic rate of increase at 2000 ppm; assay type: functional, organism-based
Encarsia inaron [15] = assay: Insecticidal activity against Encarsia inaron infested cucumber plants assessed as adult parasitoid emergence from parasitised host nymphs treated at larval stages at 400 g ai/L SC measured 10 days post compound treatment (reference value: 79.60 %); assay type: functional, Larval stage
Encarsia inaron [16] = assay: Insecticidal activity against Encarsia inaron treated at pupal stages assessed as intrinsic rate of increase at 2000 ppm; assay type: functional, organism-based; conditions: Pupal stage
Encarsia inaron [17] = assay: Insecticidal activity against Encarsia inaron treated at larval stages assessed as mean generation time at 31.25 ppm; assay type: functional, organism-based; conditions: Larval stage
Encarsia inaron [18] = assay: Insecticidal activity against Encarsia inaron treated at pupal stages at 2000 ppm assessed as insects eggs level per day (reference value: 2.37 egg/day); assay type: functional, Pupal stage
Encarsia inaron [19] = assay: Insecticidal activity against Encarsia inaron treated at adult stages assessed as mean generation time at 2000 ppm; assay type: functional, organism-based
Encarsia inaron [20] = assay: Insecticidal activity against Encarsia inaron treated at larval stages at 31.25 ppm assessed as insects eggs level per day (reference value: 2.98 egg/day); assay type: functional, Larval stage
Encarsia inaron [21] = assay: Insecticidal activity against Encarsia inaron treated at larval stages at 31.25 ppm assessed as sex ratio (reference value: 0.72 no unit); assay type: functional, Larval stage
Encarsia inaron [22] = assay: Insecticidal activity against Encarsia inaron treated at larval stages at 31.25 ppm assessed as insect longevity (reference value: 5.60 days); assay type: functional, Larval stage
Encarsia inaron [23] = assay: Insecticidal activity against Encarsia inaron treated at pupal stages at 2000 ppm assessed as insect longevity (reference value: 8.7 days); assay type: functional, Pupal stage
Encarsia inaron [24] = assay: Insecticidal activity against Encarsia inaron treated at pupal stages assessed as finite rate increase at 2000 ppm; assay type: functional, organism-based; conditions: Pupal stage
Encarsia inaron [25] = assay: Insecticidal activity against Encarsia inaron treated at adult stages at 2000 ppm assessed as sex ratio (reference value: 0.72 no unit); assay type: functional
Encarsia inaron [26] = assay: Insecticidal activity against Encarsia inaron treated at pupal stages at 2000 ppm assessed as insect total fecundity; assay type: functional, organism-based; conditions: Pupal stage
Encarsia inaron [27] = assay: Insecticidal activity against Encarsia inaron treated at adult stages at 2000 ppm assessed as insect total fecundity; assay type: functional, organism-based
Encarsia inaron [28] = assay: Insecticidal activity against Encarsia inaron treated at adult stages assessed as finite rate of increase at 2000 ppm; assay type: functional, organism-based
Encarsia inaron [29] = assay: Insecticidal activity against Encarsia inaron treated at pupal stages at 62.5 ppm assessed as insect total fecundity; assay type: functional, organism-based; conditions: Pupal stage
Encarsia inaron [30] = assay: Insecticidal activity against Encarsia inaron treated at larval stages at 62.5 ppm assessed as sex ratio (reference value: 0.72 no unit); assay type: functional, Larval stage
Encarsia inaron [31] = assay: Insecticidal activity against Encarsia inaron treated at pupal stages at 62.5 ppm assessed as insect longevity (reference value: 8.7 days); assay type: functional, Pupal stage
Encarsia inaron [32] = assay: Insecticidal activity against Encarsia inaron treated at larval stages at 62.5 ppm assessed as insects eggs level per day (reference value: 2.98 egg/day); assay type: functional, Larval stage
Encarsia inaron [33] = assay: Insecticidal activity against Encarsia inaron treated at pupal stages assessed as mean generation time at 62.5 ppm; assay type: functional, organism-based; conditions: Pupal stage
Encarsia inaron [34] = assay: Insecticidal activity against Encarsia inaron treated at adult stages assessed as finite rate of increase at 23.37 ppm; assay type: functional, organism-based
Encarsia inaron [35] = assay: Insecticidal activity against Encarsia inaron treated at larval stages assessed as mean generation time at 62.5 ppm; assay type: functional, organism-based; conditions: Larval stage
Encarsia inaron [36] = assay: Insecticidal activity against Encarsia inaron treated at pupal stages assessed as net reproductive rate at 62.5 ppm; assay type: functional, organism-based; conditions: Pupal stage
Encarsia inaron [37] = assay: Insecticidal activity against Encarsia inaron treated at pupal stages at 62.5 ppm assessed as sex ratio (reference value: 0.68 no unit); assay type: functional, Pupal stage
Encarsia inaron [38] = assay: Insecticidal activity against Encarsia inaron treated at adult stages at 23.37 ppm assessed as insects eggs level per day (reference value: 2.33 egg/day); assay type: functional
Encarsia inaron [39] = assay: Insecticidal activity against Encarsia inaron treated at adult stages assessed as doubling time at 23.37 ppm; assay type: functional, organism-based
Encarsia inaron [40] = assay: Insecticidal activity against Encarsia inaron treated at adult stages at 23.37 ppm assessed as sex ratio (reference value: 0.72 no unit); assay type: functional
Encarsia inaron [41] = assay: Insecticidal activity against Encarsia inaron treated at pupal stages assessed as intrinsic rate of increase at 62.5 ppm; assay type: functional, organism-based; conditions: Pupal stage
Encarsia inaron [42] = assay: Insecticidal activity against Encarsia inaron treated at larval stages assessed as intrinsic rate of increase at 62.5 ppm; assay type: functional, organism-based; conditions: Larval stage
Encarsia inaron [43] = assay: Insecticidal activity against Encarsia inaron treated at adult stages assessed as intrinsic rate of increase at 23.37 ppm; assay type: functional, organism-based
Encarsia inaron [44] = assay: Insecticidal activity against Encarsia inaron treated at adult stages at 23.37 ppm assessed as insect total fecundity; assay type: functional, organism-based
Encarsia inaron [45] = assay: Insecticidal activity against Encarsia inaron treated at larval stages at 62.5 ppm assessed as insect total fecundity; assay type: functional, organism-based; conditions: Larval stage
Encarsia inaron [46] = assay: Insecticidal activity against Encarsia inaron treated at pupal stages assessed as finite rate increase at 62.5 ppm; assay type: functional, organism-based; conditions: Pupal stage
Encarsia inaron [47] = assay: Insecticidal activity against Encarsia inaron treated at larval stages assessed as finite rate of increase at 62.5 ppm; assay type: functional, organism-based; conditions: Larval stage
Encarsia inaron [48] = assay: Insecticidal activity against Encarsia inaron treated at pupal stages at 62.5 ppm assessed as insects eggs level per day (reference value: 2.37 egg/day); assay type: functional, Pupal stage
Encarsia inaron [49] = assay: Insecticidal activity against Encarsia inaron treated at larval stages assessed as increase in net reproductive rate at 62.5 ppm; assay type: functional, organism-based; conditions: Larval stage
Encarsia inaron [50] = assay: Insecticidal activity against Encarsia inaron treated at adult stages at 23.37 ppm assessed as insect longevity (reference value: 8.95 days); assay type: functional
Encarsia inaron [51] = assay: Insecticidal activity against Encarsia inaron treated at adult stages assessed as increase in net reproductive rate at 23.37 ppm; assay type: functional, organism-based
Encarsia inaron [52] = assay: Insecticidal activity against Encarsia inaron infested cucumber plants assessed as adult parasitoid emergence from parasitised host nymphs treated at pupae stages at 350 g ai/L SC measured 10 days post compound treatment (reference value: 79.60 %); assay type: functional
Encarsia inaron [53] = assay: Insecticidal activity against Encarsia inaron treated at adult stages assessed as mean generation time at 23.37 ppm; assay type: functional, organism-based
Encarsia inaron [54] = assay: Insecticidal activity against Encarsia inaron treated at larval stages at 62.5 ppm assessed as insect longevity (reference value: 5.60 days); assay type: functional, Larval stage
Encarsia inaron [55] = assay: Insecticidal activity against Encarsia inaron infested cucumber plants assessed as adult parasitoid emergence from parasitised host nymphs treated at larval stages at 350 g ai/L SC measured 10 days post compound treatment (reference value: 79.60 %); assay type: functional, Larval stage

For CC(C)N1C(=O)N(c2ccccc2)CS/C1=N\C(C)(C)C [BUPROFEZIN], which LC50 (Encarsia inaron [1]) is on record?
Its LC50 is “inactive”.

And the Ratio (Encarsia inaron [2])?
The Ratio was 0.44.

And the Activity (Encarsia inaron [3])?
Its Activity is “inactive”.

What about the Activity (Encarsia inaron [4]) of the same compound?
The Activity was “Active”.

And the Activity (Encarsia inaron [5])?
The Activity was “inactive”.

What about the Activity (Encarsia inaron [6]) of the same compound?
Its Activity is “inactive”.

And the Activity (Encarsia inaron [7])?
Its Activity is 4.58 day⁻¹.

What about the Time (Encarsia inaron [8]) of the same compound?
The Time was 8.9 days.

And the Activity (Encarsia inaron [9])?
Its Activity is “inactive”.

What about the Activity (Encarsia inaron [10]) of the same compound?
Its Activity is “inactive”.

What about the Activity (Encarsia inaron [11]) of the same compound?
The Activity was 63.4%.

What about the Activity (Encarsia inaron [12]) of the same compound?
The Activity was “Active”.

And the Activity (Encarsia inaron [13])?
Its Activity is “inactive”.

And the Activity (Encarsia inaron [14])?
Its Activity is “inactive”.

What about the Activity (Encarsia inaron [15]) of the same compound?
The Activity was 2.6%.

And the Activity (Encarsia inaron [16])?
The Activity was “inactive”.

What about the Activity (Encarsia inaron [17]) of the same compound?
Its Activity is “inactive”.

What about the Activity (Encarsia inaron [18]) of the same compound?
The Activity was 1.24 day⁻¹.

And the Activity (Encarsia inaron [19])?
Its Activity is “inactive”.

And the Activity (Encarsia inaron [20])?
The Activity was 3.55 day⁻¹.

What about the Ratio (Encarsia inaron [21]) of the same compound?
Its Ratio is 0.49.

What about the Time (Encarsia inaron [22]) of the same compound?
Its Time is 7.05 days.

What about the Time (Encarsia inaron [23]) of the same compound?
The Time was 8.5 days.

What about the Activity (Encarsia inaron [24]) of the same compound?
The Activity was “inactive”.

And the Ratio (Encarsia inaron [25])?
Its Ratio is 0.44.

And the Activity (Encarsia inaron [26])?
Its Activity is “inactive”.

And the Activity (Encarsia inaron [27])?
The Activity was “inactive”.

What about the Activity (Encarsia inaron [28]) of the same compound?
The Activity was “inactive”.

With O=[N+]([O-])/N=C1\NCCN1Cc1ccc(Cl)nc1 [IMIDACLOPRID] as the compound, how does the Activity (Encarsia inaron [29]) read?
Its Activity is “Active”.

What about the LC10 (Encarsia inaron [1]) of the same compound?
The LC10 was 3.3 ppm.

What about the LC90 (Encarsia inaron [1]) of the same compound?
Its LC90 is 13407 ppm.

And the LC50 (Encarsia inaron [1]; Encarsia inaron, 48 h)?
The LC50 was 209 µg/mL (≈ 817 µM).

And the Ratio (Encarsia inaron [30])?
Its Ratio is 0.54.

What about the Time (Encarsia inaron [31]) of the same compound?
The Time was 6.7 days.

What about the Activity (Encarsia inaron [32]) of the same compound?
Its Activity is 5.44 day⁻¹.

What about the Activity (Encarsia inaron [33]) of the same compound?
Its Activity is “Active”.

What about the Activity (Encarsia inaron [34]) of the same compound?
The Activity was “inactive”.

What about the Activity (Encarsia inaron [35]) of the same compound?
Its Activity is “Active”.

And the Activity (Encarsia inaron [36])?
The Activity was “Active”.

And the Ratio (Encarsia inaron [37])?
The Ratio was 0.59.

What about the Activity (Encarsia inaron [38]) of the same compound?
Its Activity is 4.75 day⁻¹.

And the Activity (Encarsia inaron [39])?
The Activity was “inactive”.

And the Ratio (Encarsia inaron [40])?
The Ratio was 0.52.

What about the Activity (Encarsia inaron [41]) of the same compound?
The Activity was “inactive”.

And the Activity (Encarsia inaron [42])?
Its Activity is “Active”.

And the Activity (Encarsia inaron [43])?
The Activity was “inactive”.

What about the Activity (Encarsia inaron [44]) of the same compound?
The Activity was “Active”.

And the Activity (Encarsia inaron [45])?
The Activity was “Active”.

And the Activity (Encarsia inaron [46])?
The Activity was “inactive”.

What about the Activity (Encarsia inaron [47]) of the same compound?
The Activity was “Active”.

And the Activity (Encarsia inaron [48])?
The Activity was 2.77 day⁻¹.

What about the Activity (Encarsia inaron [49]) of the same compound?
The Activity was “Active”.

What about the Time (Encarsia inaron [50]) of the same compound?
The Time was 6.85 days.

What about the Activity (Encarsia inaron [51]) of the same compound?
The Activity was “inactive”.

And the Activity (Encarsia inaron [52])?
The Activity was 15%.

What about the Activity (Encarsia inaron [53]) of the same compound?
Its Activity is “inactive”.

And the Time (Encarsia inaron [54])?
Its Time is 13.2 days.

And the Activity (Encarsia inaron [55])?
Its Activity is 7%.
